Measurements reported in US8697715B2, “Serine/threonine kinase inhibitors” (Array BioPharma Inc., priority 2012, dated 2014).

Test system: PMA-stimulated P90RSK(Ser380) phosphorylation in HepG2 cells
Assay: Cellular P90RSK(Ser380) Phosphorylation Assay
Assay type: cell-based
Settings: Homo sapiens, read-out: Biological Example 2 IC50 (nM), 1.5 hours compound incubation, PMA 100 ng/mL 30 minutes, normalized to GAPDH, single assay or mean of multiple assays
Method: Inhibition of PMA-stimulated P90RSK(Ser380) phosphorylation was determined by the following in vitro cellular mechanistic assay, which comprises incubating cells with a compound for 1.5 hours and quantifying fluorescent pP90RSK(Ser380) signal on fixed cells and normalizing to GAPDH signal.
HepG2 cells were obtained from ATCC and grown in DMEM supplemented with 10% fetal bovine serum. Cells were plated in 96-well plates at 35,000 cells/well and allowed to attach overnight at 37° C./5% CO2. Diluted compounds were then added at a final concentration of 0.5% DMSO. After 1.5 hours compound incubation, cells were stimulated with the addition of phorbol 12-myristate 13-acetate (“PMA”) at a final concentration of 100 ng/mL; the PMA stimulation was a 30-minute incubation at 37° C./5% CO2. After the 30-minute PMA stimulation, cells were washed with phosphate buffered saline (“PBS”) and fixed in 3.7% formaldehyde in PBS at room temperature for 15-20 minutes. This was followed by another wash in PBS and then permeabilization in 100% MeOH at room temperature for 10-15 minutes. Following the permeabilization incubation, cells were washed in PBS/0.05% Tween-20, followed by a block in Odyssey blocking buffer (LI-COR Biosciences) for at least 1 hour. […] Both secondary antibodies were used at a 1:1000 dilution. Cells were then washed and analyzed for fluorescence at both wavelengths using the Odyssey Infrared Imaging System (LI-COR Biosciences). Phosphorylated P90RSK(Ser380) signal was normalized to GAPDH signal.

| Compound | IC50 |
| --- | --- |
| O=c1cc(-c2ccnc(NC3CCOCC3)n2)ccn1[C@H](COP(=O)(O)O)c1ccc(Cl)c(F)c1 [Example α, (S)-2-(4-chloro-3-fluorophenyl)-2-(2-oxo-4-(2-((tetrahydro-2H-pyran-4-yl)amino)pyrimidin-4-yl)pyridin-1(2H)-yl)ethyl dihydrogen phosphate] | 955 nM |
| O=c1cc(-c2ccnc(NC3CCOCC3)n2)ccn1[C@H](COCOP(=O)(O)O)c1ccc(Cl)c(F)c1 [Example β, (S)-(2-(4-chloro-3-fluorophenyl)-2-(2-oxo-4-(2-((tetrahydro-2H-pyran-4-yl)amino)pyrimidin-4-yl)pyridin-1(2H)-yl)ethoxy)methyl dihydrogen phosphate] | 99.6 nM |
